Measured values published in US10870635B2, “Compounds and their use as BACE1 inhibitors” (ALLGENESIS BIOTHERAPEUTICS, INC., priority 2015, dated 2020).

Key:
[1] = biological target: BACE1 (recombinant β-secretase enzyme) (Homo sapiens (Human), UniProt P56817); assay: AnaSpec BACE1 fluorescent assay (beta-secretase activity assay); assay type: biochemical
Description: A BACE1 activity assay kit from AnaSpec (Fremont, Calif.) was used to determine the potency of the selected BACE1 inhibitors by AnaSpec BACE1 fluorescent assay. The recombinant β-secretase enzyme was diluted 1:200 in 1× assay buffer (1 part of 1× assay buffer and 1 part of TBS containing 0.1% Tween 20). The enzyme was added in a volume of 40 μl to each well of a black 96-well micro plate.
The BACE1 inhibitors were serially diluted into DMSO from their 10 mM stock concentrations in DMSO. The serially diluted inhibitors were diluted 1:100 into 1× assay buffer in a 96-well polypropylene plate (assay dilution plate). The final concentration of the BACE1 inhibitor tested was 300 nM, 100 nM, 30 nM, 10 nM, 3 nM, 1 nM 0.3 nM, and 0.00 nM. Dose responses for inhibitors were run in duplicate.
A volume of 10 μl of the inhibitor from the assay dilution plate, a control inhibitor LY2886721 or inhibitor vehicle was then added to each well of the black 96-well micro plate containing BACE1.
(§1) To each well of the black 96-well micro plate, 50 μl of the β-secretase substrate (Hylite Fluor 488) diluted 1:100 using assay buffer was added. The reagents were mixed gently and the assay plate was placed into a POLARstar fluorescent plate reader with excitation wavelength set at 485 nm and the emission wavelength set at 520 nm. The plate reader was set to take readings every 5 minutes for up to 30 minutes or a 30 minute endpoint reading was used.
An appropriate integrated first-order rate equation was used to fit the data accumulated over a 30-40 minute collection period.

[2] = biological target: Human recombinant cathepsin D (Homo sapiens (Human), UniProt P07339); assay: Cathepsin D activity assay; assay type: biochemical; details: read-out: CatD IC50
Description: The development of a CatD activity assay is used to determine any potential cross reactivity for compounds selected from the β-secretase activity assay and to determine the selectivity to BACE1 inhibition. The CatD activity is reported for assessing target selectivity ratio (CatD IC50/BACE1 IC50).
The reagents for the cathepsin D assay were prepared as follows.
Human recombinant cathepsin D stored frozen in 2.0 μl aliquots was thawed and 42 μl of enzyme buffer (0.1M NaOAC, 0.2 M NaCl, pH 3.5) was added and incubated at 37° C. for 30 minutes. After 30 minutes the enzyme was further diluted to a final volume of 4.4 ml in enzyme buffer containing 5.0 mM DTT for immediate use in the cathepsin D assay.
The 7-methoxycoumarin-labeled peptide substrate (ES010) for cathepsin D was supplied as a 6.2 mM stock in DMSO. For use in the cathepsin D assay, the 6.2 mM stock was diluted to a 1.55 mM stock with DMSO. The 1.55 mM peptide stock in DMSO was further diluted 1:100 in reaction buffer (0.1M NaOAC, 0.2M NaCl, 0.1% Tween 20, 5.0 mM DTT, pH3.5) to create a 15.5 μM stock for use in the assay.
DMSO without compound served as a DMSO vehicle control for the cathepsin D assay. For each test compound, 30 μl of each dilution was pipetted into a separate well of a 96-well polypropylene plate. This polypropylene plate was labeled as the DMSO dilution plate and a plate map of test compound locations was made.
Test compounds from the DMSO dilution plate require a 1:100 dilution into reaction buffer before they can be added to the cathepsin D assay plate. To accomplish the 1:100 dilution of test compounds, 2.0 μl of each test compound at each concentration was pipetted from the DMSO dilution plate (using a multi-channel pipette calibrated to accurately dispense a 2.0 μl volume) into a new 96-well polypropylene plate using the plate map created for the DMSO dilution plate. This 96-well plate served as the inhibitor dilution plate. Next, 198 μl of reaction buffer was pipetted into each well of the inhibitor dilution plate (using a multi-channel pipette calibrated for accurate delivery of a 198 μl volume) and the pipetted test compound mixed by gentle up and down pipetting.
A1.0 mM stock of pepstatin A was made in DMSO and aliquotted into 5.0 μl samples for freezing and storage at −20° C. Upon thawing, 45 μl of DMSO (1:10 dilution) was added to create a 100 μM stock of pepstatin A in DMSO. The 100 μM Pepstatin A stock was further diluted 1:10 with DMSO to create a 10 μM stock in DMSO. […]
The assay plate was placed into a fluorescent plate reader with the excitation wavelength set at 320 nm and the emission wavelength set at 405 nm. Readings were collected every minute over a 30 minute collection period.

recombinant BACE2 = recombinant BACE2 (Homo sapiens (Human), UniProt Q9Y5Z0); assay: AnaSpec BACE2 fluorescent assay; assay type: biochemical
Description: A BACE2 activity assay kit from AnaSpec (Fremont, Calif.) was used to determine the potency of the selected compounds by AnaSpec BACE2 fluorescent assay. To each well of a black 96-well micro plate, 50 μl of the β-secretase substrate (Hylite Fluor 488) diluted 1:100 using assay buffer was first added.
The compounds were serially diluted (1:2) into DMSO from their 10 mM stock concentrations in DMSO. The serially diluted inhibitors were diluted 1:100 into 1× assay buffer in a 96-well polypropylene plate (assay dilution plate). The final concentration of these compounds tested was 300 nM, 150 nM, 75 nM, 37.5 nM, 18.75 nM, 9.375 nM, 4.688 nM, 2.344 nM, 1.172 nM, 0.586 nM, and 0.293 nM.
A volume of 10 μl of the inhibitor from the assay dilution plate, a control inhibitor LY2886721 or inhibitor vehicle was then added to each well of the black 96-well micro plate.
The recombinant BACE2 was diluted in an assay buffer and the final BACE2 was 10.6 nM. The enzyme was added in a volume of 40 μl to each well of a black 96-well micro plate.
as §1, with “The” for “To each well of the black 96-well micro plate, 50 μl of the β-secretase substrate (Hylite Fluor 488) diluted 1:100 using assay buffer was added. The”
An appropriate integrated first-order rate equation was used to fit the data accumulated over a 30-40 minute collection period. Dose responses for inhibitors were run in duplicate.

[3] = animal toxicology study; cited from earlier work
[4] = in humans; cited from earlier work
[5] = system: CSF Aβ40, Aβ42 and soluble APPβ; details: AD patients, reported by Merck; cited from earlier work

BACE1 (recombinant β-secretase enzyme), sequence (P56817 46-501): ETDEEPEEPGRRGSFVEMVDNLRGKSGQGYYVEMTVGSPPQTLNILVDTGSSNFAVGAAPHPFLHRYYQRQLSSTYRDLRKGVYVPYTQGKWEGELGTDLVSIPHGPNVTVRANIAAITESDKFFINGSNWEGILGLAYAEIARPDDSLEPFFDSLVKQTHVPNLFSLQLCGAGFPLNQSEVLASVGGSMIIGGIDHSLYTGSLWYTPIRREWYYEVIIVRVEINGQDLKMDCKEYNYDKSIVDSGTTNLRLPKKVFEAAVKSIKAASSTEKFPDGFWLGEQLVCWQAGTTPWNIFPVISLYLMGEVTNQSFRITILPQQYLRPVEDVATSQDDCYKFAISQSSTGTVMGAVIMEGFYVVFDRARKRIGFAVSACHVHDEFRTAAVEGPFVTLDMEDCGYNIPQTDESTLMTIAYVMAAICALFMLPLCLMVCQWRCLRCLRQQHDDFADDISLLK
recombinant BACE2, sequence (Q9Y5Z0 63-518): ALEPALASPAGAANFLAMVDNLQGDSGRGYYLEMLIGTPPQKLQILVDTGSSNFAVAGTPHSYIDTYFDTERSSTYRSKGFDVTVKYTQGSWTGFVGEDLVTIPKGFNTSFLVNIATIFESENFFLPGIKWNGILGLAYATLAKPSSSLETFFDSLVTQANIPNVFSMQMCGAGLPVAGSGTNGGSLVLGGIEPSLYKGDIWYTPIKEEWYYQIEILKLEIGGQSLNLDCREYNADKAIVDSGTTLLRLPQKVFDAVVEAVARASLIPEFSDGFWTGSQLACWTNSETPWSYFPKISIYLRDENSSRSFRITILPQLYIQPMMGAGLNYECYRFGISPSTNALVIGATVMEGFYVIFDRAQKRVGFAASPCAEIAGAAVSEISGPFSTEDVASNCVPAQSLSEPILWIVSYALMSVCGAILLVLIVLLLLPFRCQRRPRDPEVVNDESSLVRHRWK
Human recombinant cathepsin D, sequence (P07339 65-412): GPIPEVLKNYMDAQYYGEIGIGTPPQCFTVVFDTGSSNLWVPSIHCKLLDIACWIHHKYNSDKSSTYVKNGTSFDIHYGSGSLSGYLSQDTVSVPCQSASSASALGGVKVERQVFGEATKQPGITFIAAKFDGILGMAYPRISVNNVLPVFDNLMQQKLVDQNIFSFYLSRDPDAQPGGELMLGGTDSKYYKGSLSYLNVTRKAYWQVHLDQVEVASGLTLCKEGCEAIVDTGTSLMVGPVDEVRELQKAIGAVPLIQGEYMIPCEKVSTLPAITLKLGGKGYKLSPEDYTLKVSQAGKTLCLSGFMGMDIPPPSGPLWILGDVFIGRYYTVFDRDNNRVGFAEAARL

| Compound | IC50 [1] [nM] | IC50 [2] [nM] | IC50 (recombinant BACE2) [nM] | other results |
| --- | --- | --- | --- | --- |
| C[C@@]1(c2cc(-c3cncnc3)c(F)cc2F)CCSC(N)=N1 [LY-2811376] |  |  |  | toxicity finding leading to discontinuation [3]: retinal toxicity |
| NC1=N[C@@]2(c3cc(NC(=O)c4ccc(F)cn4)ccc3F)COC[C@H]2CS1 [LY-2886721] |  |  |  | toxicity finding leading to termination [4]: liver toxicity |
| CN1C(=N)N[C@](C)(c2cc(NC(=O)c3ccc(F)cn3)ccc2F)CS1(=O)=O [MK-8931] |  |  |  | effect on CSF Aβ40, Aβ42 and soluble APPβ [5]: reduce CSF Aβ40, Aβ42 and soluble APPβ |

Second part, led by results:

| IC50 [1] [nM] | IC50 [2] [nM] | IC50 (recombinant BACE2) [nM] | Compound | other results |
| --- | --- | --- | --- | --- |
| 26 | 12300 |  | CC#Cc1ccc2sc3ccc([C@]4(C)CC(=O)N(C)C(=N)N4)cc3c2c1 [Example 1, (S)-2-Imino-3,6-dimethyl-6-(8-(prop-1-yn-1-yl)dibenzo[b,d]thiophen-2-yl)tetrahydropyrimidin-4(1H)-one] |  |
| 44 |  | 24 | CC#Cc1ccc2[nH]c([C@]3(C)CC(=O)N(C)C(=N)N3)c(Cl)c2c1 [Example 38, (S)-6-(3-Chloro-5-(prop-1-yn-1-yl)-1H-indol-2-yl)-2-imino-3,6-dimethyl-tetrahydropyrimidin-4(1H)-one] |  |
| 44 | 3900 | 23.8 ± 1.52 | CC#Cc1ccc2sc3cc(Cl)c([C@]4(C)CC(=O)N(C)C(N)=N4)cc3c2c1 [Example 71, (S)-2-Amino-6-(3-chloro-8-(prop-1-yn-1-yl)dibenzo[b,d]thiophen-2-yl)-3,6-dimethyl-5,6-dihydropyrimidin-4(3H)-one] |  |
